{"source": "patent US12054560B2", "about": "“Bifunctional molecules recruiting antibodies and targeting cancer cells” (JIANGNAN UNIVERSITY, priority 2017, dated 2024)", "key": {"HUVEC cells [1]": {"test_system": "HUVEC cells", "assay": "CDC assay on HUVEC cells", "type": "cell-based", "conditions": "250 nM, anti-DNP antibody, 10% complement, cck8 method, FIG. 9", "description": "CDC assay implementation: (1) HUVEC cells were seeded in 96-well plates at a concentration of 5,000 cells/well. After the cells were fully attached, added with NGR oligopeptide (NGR peptide, amino acid sequence: GGG-cyclo-(CNGRC) (SEQ ID NO:8)) or NGR-DNP compound at a final concentration of 250 nM and added a certain concentration of anti-DNP antibody at the same time. After 2 hours of incubation at 37° C., a final concentration of 10% of the complement solution was added and incubated for 1 hour at 37° C. After the incubation, the cell viability was measured by the cck8 method."}, "HUVEC cells [2]": {"test_system": "HUVEC cells", "assay": "ADCC assay on HUVEC cells", "type": "cell-based", "conditions": "250 nM, anti-DNP antibody, PBMC, LDH method, FIG. 9", "description": "ADCC assay implementation: (1) HUVEC cells were seeded in 96-well plates at a concentration of 10,000 cells/well. After the cells were fully attached, added with NGR oligopeptide (NGR peptide, amino acid sequence: GGG-cyclo-(CNGRC) (SEQ ID NO:8)) or NGR-DNP compound at a final concentration of 250 nM and immediately added a certain concentration of anti-DNP antibody. (2) After incubation for a period of time, freshly extracted PBMC cells were added at a certain effect target ratio for a certain period of time. (3) The supernatant was removed by centrifugation, and cytotoxicity was measured by the LDH method."}, "[3]": {"test_system": "HUVEC (high expression of CD13)", "assay": "Flow cytometry, recruitment of anti-DNP antibody on HUVEC cells", "type": "cell-based", "conditions": "250 nM, anti-DNP antibody 20 μg/mL, FIG. 9", "description": "Cell assay implementation: cell culture: commercial cells HUVEC (high expression of CD13) was cultured in DMEM complete medium. All cell culture conditions were 37° C., 5% CO2. Flow cytometry assay: (1) The cells were digested with trypsin, resuspended in flow medium diluted to 1×10^5 cells. 400 μL of cells (40,000 cells) were added to a sterile EP tube. (2) NGR oligopeptide (NGR peptide, amino acid sequence: GGG-cyclo-(CNGRC) (SEQ ID NO:8)) or NGR-DNP were added at a final concentration of 250 nM. In the negative control group, cells were treated with PBS. The cells were added anti-DNP (anti-DNP) antibody at a concentration of 20 μg/mL in all groups, incubate on ice for 1 h. then the cells were washed and incubated with fluorescent secondary antibody for 0.5 h. (3) The cells were thoroughly washed gently with a flow buffer, resuspended, and analyzed by instruments."}, "[4]": {"test_system": "SKBR3 (HER2 positive) cells", "assay": "Flow cytometry, recruitment of anti-Rha IgG on SKBR3 cells", "type": "cell-based", "conditions": "250 nM, Alexa 488-conjugated rabbit anti-Rha IgG, FIG. 5", "description": "SKBR3 (HER2 positive) and MCF7 cells (HER2 negative) were grown in DMEM supplemented with 10% FBS, 1% penicillin-streptomycin. All cells were cultured at 37° C. in a 5% CO2 humidified atmosphere.\n(1) Cells were cultured and detached with trypsin-EDTA and then resuspended to 1.0×10^5 cells/mL. Forty thousand of these cells were added into tubes. (2) Nanobody C7b and Rha conjugated C7b were then added to a final concentration of 250 nM, followed which Alexa 488-conjugated rabbit anti-Rha IgG antibodies were added. In the negative control group, cells were treated with PBS instead of nanobody. These cells were incubated on ice for 60 min, (3) washed with flow cytometry buffer and then analyzed using an Accuri C6 flow cytometer."}, "CD13 receptor, P15144": {"target": "T1, CD13 receptor, P15144", "T1 chain": "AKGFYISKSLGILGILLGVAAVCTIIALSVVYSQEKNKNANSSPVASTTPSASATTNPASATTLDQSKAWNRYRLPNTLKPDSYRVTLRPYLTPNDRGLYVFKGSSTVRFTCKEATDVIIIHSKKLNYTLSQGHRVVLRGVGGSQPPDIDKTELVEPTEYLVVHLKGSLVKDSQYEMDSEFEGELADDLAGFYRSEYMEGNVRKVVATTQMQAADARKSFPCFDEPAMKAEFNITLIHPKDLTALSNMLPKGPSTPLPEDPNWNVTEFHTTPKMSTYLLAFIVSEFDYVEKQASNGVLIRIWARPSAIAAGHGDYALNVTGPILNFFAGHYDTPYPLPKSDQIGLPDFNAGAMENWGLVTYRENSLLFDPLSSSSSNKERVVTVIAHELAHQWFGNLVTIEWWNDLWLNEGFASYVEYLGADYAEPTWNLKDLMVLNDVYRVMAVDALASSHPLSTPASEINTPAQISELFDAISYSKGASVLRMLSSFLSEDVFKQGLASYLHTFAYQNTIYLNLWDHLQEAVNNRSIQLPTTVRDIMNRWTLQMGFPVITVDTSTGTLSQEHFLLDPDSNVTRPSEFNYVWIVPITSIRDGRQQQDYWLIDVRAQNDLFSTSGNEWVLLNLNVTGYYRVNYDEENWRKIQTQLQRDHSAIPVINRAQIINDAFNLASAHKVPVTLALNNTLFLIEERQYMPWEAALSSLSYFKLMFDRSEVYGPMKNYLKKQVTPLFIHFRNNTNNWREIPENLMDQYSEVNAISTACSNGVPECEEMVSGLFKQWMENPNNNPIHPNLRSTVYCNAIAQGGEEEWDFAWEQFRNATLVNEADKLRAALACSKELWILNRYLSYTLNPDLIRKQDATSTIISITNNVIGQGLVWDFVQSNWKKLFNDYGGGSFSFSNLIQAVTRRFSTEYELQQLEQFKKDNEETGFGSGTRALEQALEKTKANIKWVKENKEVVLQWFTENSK", "assay": "cell-based or functional assay"}}, "note": "Bridge positions count the residues as written; N and C are the ends. Ends that are not written are not given here."}
{"molecule": "NGR-DNP: DNP-TEG-COOH coupled to peptide GGGCNGRC, oxidized with iodine to the cyclic form (GGGCNGRC-OH; disulfide 4-8 (inferred); also: DNP-TEG-COOH coupled to peptide, site not given here)", "values": [{"measurement": "CDC cell lysis rate", "setting": "HUVEC cells [1]", "value": "approximately 60%"}, {"measurement": "ADCC cell lysis rate", "setting": "HUVEC cells [2]", "value": "approximately 60%"}, {"measurement": "recruitment of antibodies and targeting of tumor cells", "setting": "[3]", "value": "can recruit antibodies and target tumor cells"}]}
{"molecule": "C7b: anti-HER2 nanobody C7b, SEQ ID NO: 2 (related NCBI sequence ID: AFN61318.1) (protein, The HER2-specific nanobody C7b sequence was genetically engineered to contain at its C-terminus a sorting signal for further sortase A-mediated ligation.) VHH: MQVQLVQSGGGLVQAGGSLRLSCAASGRTFSSYAMAWFRQAPGKEREFVAAISWSGANIYVADSVKGRFTISRDNAKDTVYLQMNSLKPEDTAVYYCAVKLGFAPVEERQYDYWGQGTQVTVSSLPETGG", "values": [{"measurement": "fluorescence intensity increase compared to negative control (accumulation of anti-Rha IgGs on cells)", "setting": "[4]", "value": "no fluorescence intensity increase"}]}
{"molecule": "GGGCNGRC (modifications not checked)", "note": "[NGR-DNP]", "values": [{"measurement": "CDC and ADCC cell lysis rate", "setting": "CD13 receptor, P15144", "value": 60, "unit": "%"}]}
